Here are results for two compounds from paper PMC5906549, “Cathelicidin-Derived Antimicrobial Peptides Inhibit Zika Virus Through Direct Inactivation and Interferon Pathway” (Frontiers in Immunology, 2018).

Peptide text beside a SMILES is read from it.

Assay [1] deals with ZIKV strain MR766. Briefly: Post-infection peptide treatment of ZIKV-infected human fetal astrocytes (RT-PCR and plaque-forming assay). In kind it is cell-based, Zika virus. The following applies: human fetal astrocytes infected MOI 0.5 for 24 h, then peptide 10 µM for 24 h, N = 4; for Zika virions after post-infection treatment (plaque-forming assay): cell-free supernatants; for ZIKV RNA after post-infection treatment, compared with untreated ZIKV group: normalized to GAPDH. On the procedure:
Vero cells were plated into 12-well plates at 5 (10^5 cells/well the day before infection). On the day of infection, the monolayers of Vero cells were inoculated with 100 µL of 10-fold serial dilutions of viral stocks and incubated at 37 °C for 1 h. After viral inoculation, medium containing ZIKV particles was removed and 1 ml overlay containing 0.6% molecular biology grade agarose (Agarose Unlimited, Alachua, FL, USA) in Modified Eagle Medium (Gibco) with 2% FBS. Cells were maintained at 37°C in 5% CO2 for 4 days. On day 5, cells were fixed with 4% paraformaldehyde solution in PBS and stained with 1% crystal violet solution in 20% methanol in water. Viral plaques were photographed using a CanonScan 9950F scanner and each plaque was counted as a plaque-forming unit (PFU). Viral titer was calculated as PFU/[volume virus (mL) × (dilution factor)].
Total mRNA was isolated with TRIzol Reagent (Thermo Fisher Scientific) and RNeasy Mini Kit (QIAGEN Inc., Valencia, CA, USA) following the manufacturer’s recommendations. Two real-time RT-PCR methods were used for the current studies. First, SYBR Green-based RT-PCR assay was used to determine intracellular ZIKV RNA in Vero cells. For this assay, reverse transcription was performed using Verso cDNA synthesis Kit (Thermo Fisher Scientific) and 1 µg of total RNA in a 15-µL final volume. The RT-PCR analyses were performed using 7.5-µL SYBR Green PCR Master Mix (Thermo Fisher Scientific) with 0.5-µL cDNA, 1.5-µL H2O, 5.5-µL oligonucleotide primer pairs at 10 µM. Primers used were ZIKV RNA: forward sequence 5-[…]-3, reverse sequence 5-[…]-3; GAPDH: forward sequence 5-[…]-3, reverse sequence 5-GGCTGT […] GG-3. PCR program: 1, 50°C for 2 min; 2, 95°C for 2 min; 3, 95°C for 15 s; 4, specific annealing temperature for 15 s; 5, 72°C for 1 min. Steps 2–4 were repeated 40 times. All samples were amplified in triplicate for analysis. Relative ZIKV RNA levels were determined and standardized with a GAPDH internal control using comparative ΔΔCT method ([35]). Second, TaqMan-based RT-PCR assay was used to determine intracellular ZIKV RNA and other gene expressions in Figures 3–6 and extracellular ZIKV RNA in Figure 3. […] Relative ZIKV mRNA levels were determined and standardized with a GAPDH or 18-s rRNA endogenous control using comparative ΔΔCT method ([35]). All reference genes, including GAPDH, β-actin, and 18-s rRNA, detected identical changes of genes (Figure S1 in Supplementary Material). […] Quantitative genomic RNA from ZIKV (NR-1838DQ, ATCC) was used as a standard to calculate viral copies. […]
Figure 4 Antimicrobial peptides treatment post-infection is still effective in inhibiting Zika virus (ZIKV) infection. […] (B–D) At 24-h post-antimicrobial peptide treatment, RNA was isolated from cells and ZIKV RNA was determined through real-time RT-PCR. […]

The subject of assay [2] is ZIKV strain MR766. Briefly: ZIKV RNA at 2-h post-infection in pre-treated human fetal astrocytes (early infection / entry). In kind it is cell-based, Zika virus. The following applies: astrocytes treated with AMPs 2 h at 37°C, then ZIKV MOI 0.5 for 2 h; normalized to 18-s rRNA; N = 3. As to the method: Total mRNA was isolated with TRIzol Reagent (Thermo Fisher Scientific) and RNeasy Mini Kit (QIAGEN Inc., Valencia, CA, USA) following the manufacturer’s recommendations. Two real-time RT-PCR methods were used for the current studies. First, SYBR Green-based RT-PCR assay was used to determine intracellular ZIKV RNA in Vero cells. For this assay, reverse transcription was performed using Verso cDNA synthesis Kit (Thermo Fisher Scientific) and 1 µg of total RNA in a 15-µL final volume. The RT-PCR analyses were performed using 7.5-µL SYBR Green PCR Master Mix (Thermo Fisher Scientific) with 0.5-µL cDNA, 1.5-µL H2O, 5.5-µL oligonucleotide primer pairs at 10 µM. […] Relative ZIKV RNA levels were determined and standardized with a GAPDH internal control using comparative ΔΔCT method ([35]). […] Relative ZIKV mRNA levels were determined and standardized with a GAPDH or 18-s rRNA endogenous control using comparative ΔΔCT method ([35]). All reference genes, including GAPDH, β-actin, and 18-s rRNA, detected identical changes of genes (Figure S1 in Supplementary Material). […] Quantitative genomic RNA from ZIKV (NR-1838DQ, ATCC) was used as a standard to calculate viral copies. […]
(A) Primary human fetal astrocytes were pre-incubated at 4°C for half an hour and then treated with antimicrobial peptides along with ZIKV infection at the MOI of 0.5 for 2 h. […] ZIKV RNA was determined through real-time RT-PCR.

As to `CC[C@H](C)[C@H](NC(=O)[C@H](CCCCN)NC(=O)[C@H](CCCCN)NC(=O)[C@H](Cc1ccccc1)NC(=O)[C@H](CC(C)C)NC(=O)[C@H](CCCCN)NC(=O)[C@H](CCCCN)NC(=O)[C@H](Cc1ccccc1)NC(=O)[C@H](CCCCN)NC(=O)[C@H](CCCCN)NC(=O)[C@H](CCCNC(=N)N)NC(=O)[C@H](Cc1ccccc1)NC(=O)[C@H](CCCNC(=N)N)NC(=O)[C@H](CCCCN)NC(=O)[C@H](Cc1ccccc1)NC(=O)[C@H](CCCNC(=N)N)NC(=O)CN)C(=O)N[C@@H](CO)C(=O)O` [BMAP-18] (H-GRFKRFRKKFKKLFKKIS-OH; N-terminus and C-terminus assumed), in the assay with ZIKV strain MR766 [1], the “Zika virions after post-infection treatment (plaque-forming assay)” value is on record as “fewer virions” and the “ZIKV RNA after post-infection treatment, compared with untreated ZIKV group” value is “trended downward; however, the difference was not significant”. Moreover, in the assay on ZIKV strain MR766 [2], the “ZIKV RNA at 2-h post-infection compared with untreated ZIKV group” value is on record as “significantly decreased ZIKV RNA”.
For `CC[C@H](C)[C@H](NC(=O)[C@H](CCCNC(=N)N)NC(=O)[C@H](CCC(N)=O)NC(=O)[C@@H](NC(=O)[C@@H](NC(=O)[C@H](CCCNC(=N)N)NC(=O)[C@H](CCCCN)NC(=O)[C@H](Cc1ccccc1)NC(=O)CN)[C@@H](C)CC)C(C)C)C(=O)N[C@@H](CCCCN)C(=O)N[C@@H](CC(=O)O)C(=O)N[C@@H](Cc1ccccc1)C(=O)N[C@@H](CC(C)C)C(=O)N[C@@H](CCCNC(=N)N)C(=O)N[C@@H](CC(N)=O)C(=O)N[C@@H](CC(C)C)C(=O)N[C@H](C(N)=O)C(C)C` [GF-17] (H-GFKRIVQRIKDFLRNLV-NH2; N-terminus and C-terminus assumed) the same measures were “fewer virions”, “significantly decreased ZIKV RNA” and “significantly decreased ZIKV RNA”.
